From US7807712B2, “Oxy substituted chalcones as antihyperglycemic and antidyslipidemic agents” (priority 2004, dated 2010) come the findings set out here.

Like-named read-outs stand apart in the source and are kept apart here.

Series [1] concerns sucrose loaded rats. Briefly: Sucrose loaded rat model (SLM), antihyperglycemic activity. In kind it is in vivo, rat (Charles Foster/Wistar). Conditions: 100 mg/kg oral, sucrose load 10.0 g/kg, AUC vs control, 30-120 min; for inhibition in vivo at 100 mg/kg: Rattus norvegicus, 2 h, read-out: % Fall in blood glucose levels SLM. As for the experimental part:
Male albino rats of Charles Foster/Wistar strain of average body weight 160±20 g were selected for this study. The blood glucose level of each animal was checked by glucometer using glucostrips (Boehringer Mannheim) after 16 h starvation. Animals showing blood glucose levels between 3.33 to 4.44 mM (60 to 80 mg/dl) were divided into groups of five to six animals in each. Animals of experimental group were administered suspension of the desired synthetic compound orally (made in 1.0% gum acacia) at a dose of 100-mg/kg-body weight. Animals of control group were given an equal amount of 1.0% gum acacia. A sucrose load (10.0 g/kg) was given to each animal orally exactly after 30 min post administration of the test sample/vehicle. Blood glucose profile of each rat was again determined at 30, 60, 90 and 120 min post administration of sucrose by glucometer. Food but not water was withheld from the cages during the course of experimentation. Quantitative glucose tolerance of each animal was calculated by Area Under Curve (AUC) method (Prism Software). Comparing the AUC of experimental and control groups determined the percentage antihyperglycemic activity. Statistical comparison was made by Dunnett's test.

The test system of series [2] is triton WR-1339 induced hyperlipidemic rats. Briefly: Triton model, antidyslipidemic activity. Format: in vivo, rat (Charles foster). Conditions: 100 mg/kg oral; for inhibition in vivo at 100 mg/kg: Rattus norvegicus. As for the experimental part: Male Charles foster rats weighing 200-225 g were divided into control, hyperlipidemic and hyperlipidemic plus drug treated groups containing six animals in each group. Hyperlipidemia was induced by administration of triton WR-1339 (200 mg/kg i.p.). All animals were maintained on a special pellet diet and water ad libitum. Compounds and standard drug were macerated with 0.2% aqueous gum acacia suspension. The suspension was fed orally at the dose of 100 mg/kg simultaneously with triton in drug treated group. The animals of control group received the same amount of gum acacia by similar route of administration. At the end of the experiment, after 18 h, blood was withdrawn from retro orbital plexus and plasma was used for the assay of total cholesterol, phospholipid and triglycerides.
Cholesterol was estimated using the kit provided by Roche Diagnostics. Cholesterol esters are enzymatically hydrolyzed by cholesterol esterase (CE) to cholesterol and free fatty acids. Free cholesterol, including that originally present, is then oxidized by cholesterol oxidase (CO) to cholest-4-en-3-one and hydrogen peroxide. The hydrogen peroxide combines with hydroxy benzoic acid (HBA) and 4-aminoantipyrine (4AAA) in the presence of peroxidase (POD) to form a chromophore (quinoneimine dye), which may be quantitated at 500-505 nm. The intensity of red colour formed is directly proportional to the concentration of total cholesterol in the specimen and measured spectrophotometrically (Searcy, C. L. Diagnostic Biochemistry, 1969, McGraw Hill, New York; Ellefson, R. D.; Caraway, W. T. Fundamentals of clinical chemistry, 1976, Ed Tietz N W, 506-515.)
Triglycerides were estimated using the kit provided by Roche Diagnostics. Lipoprotein lipase hydrolyses triglycerides to yield glycerol and fatty acids. Glycerol kinase converts glycerol to glycerol-3-phosphate, which is oxidized by glycerol phosphate oxidase to dihydroxy acetone phosphate and hydrogen peroxide. In the presence of peroxidase, hydrogen peroxide oxidatively couples with 4-aminoantipyrine and 4-chloro phenol to produce red quinonimine dye. The intensity of red colour formed is directly proportional to the concentration of triglycerides in the specimen and is measured by photometrically (Wahlefeld, A. W.; Bergmeyer, H. U. Ed. Methods of enzymatic analysis, 2nd English edition, New York, N.Y., Academic press inc, 1831-1840.).
Serum (0.2 mL) and perchloric acid (1.0 mL) was digested at 180° C. for 1-1.5 h till the solution became colorless. The liberated inorganic phosphate (Pi) was measured by the method of Fiske and Subbarow (Fiske, C. H.; Subbarow, V. J. Biol. Chem. 1925, 66, 375.). 1 mL of 2.5% ammonium molybdate (prepared in 5 N sulphuric acid) and 0.5 mL reducing agent (4-amino naphthol sulphonic acid, 0.2%), sodium metabisulphite (2.4% w/v in distilled water) was added to the above tubes and mixed well. The reaction mixture was […] with 2.5 mL of triple distilled water and kept at 60° C. in water bath for 20 min. For standard, an appropriate amount of potassium dihydrogen phosphate dissolved in triple distilled water containing 2-10 μg phosphorus (Pi) was run simultaneously with the experiment tubes. The optical density of the blue colour was recorded at 620 nm against reagent blank. The values of Pi were converted into phospholipid by multiplying with 25 (a constant calibrated from Pi value of lecithin).

The subject of series [3] is streptozotocin-induced diabetic rats. Briefly: Sucrose-challenged streptozotocin-induced diabetic rats (STZ-S), antihyperglycemic activity. Particulars: 100 mg/kg oral, sucrose load 2.5 g/kg, AUC vs control. In kind it is in vivo, rat (Sprague Dawley). The procedure:
Male albino rats of Sprague Dawley strain of body weight […] were selected for this study. Streptozotocin (Sigma, USA) was dissolved in 100 mM citrate buffer pH 4.5 and calculated amount of the fresh solution was injected to overnight fasted rats (45 mg/kg) intraperitoneally. Blood glucose level was checked 48 h later by glucostrips and animals showing blood glucose values between 144 to 270 mg/dl (8 to 15 mM) were included in the experiment and termed diabetic. The diabetic animals were divided into groups consisting of five to six animals in each group. Animals of experimental groups were administered suspension of the desired test samples orally (made in 1.0% gum acacia) at a dose of 100-mg/kg-body weight. Animals of control group were given an equal amount of 1.0% gum acacia. A sucrose load of 2.5-g/kg body weight was given after 30 minutes of compound administration. After 30 minutes of post sucrose load blood glucose level was again checked by glucostrips at 30, 60, 90, 120, 180, 240, 300 min and at 24 h, respectively. Animals not found diabetic after 24 hours post treatment of the test sample were not considered and omitted from the calculations and termed as non-responders. […] Food but not water was withheld from the cages during the experimentation. Comparing the AUC of experimental and control groups determined the percent antihyperglycemic activity. Statistical comparison between groups was made by Student's ‘t’ test.

Setting [4] is: plasma total cholesterol after 18 h.
Where [5] appears, read: plasma triglycerides after 18 h.
[6] abbreviates: plasma phospholipid after 18 h, read-out: % Fall in lipid levels (Triton model) PL.
Where [7] appears, read: plasma total cholesterol after 18 h, read-out: % Fall in lipid levels (Triton model) TC.
Setting [8] is: plasma triglycerides after 18 h, read-out: % Fall in lipid levels (Triton model) TG.

As for `COc1ccc(C=CC(=O)c2cccc(OCCCCCOc3ccc(C=C4SC(=O)NC4=O)cc3)c2)cc1` [Compound 44, 4-Methoxy-3′-{5-[4-(thiazolidin-2,4-dione-5-ylidinemethyl)-phenoxy]-pentyloxy}-chalcone], the “% Fall in blood glucose levels SLM” value in series [1] is “NIL”. The “% Fall in lipid levels (Triton model) PL” value in series [2] (plasma phospholipid after 18 h) is on record as 13%. In addition, the “% Fall in lipid levels (Triton model) TC” value in series [2] (setting [4]) was 06%. Also, in series [2] (setting [5]), the “% Fall in lipid levels (Triton model) TG” value is on record as 19%.

`COc1ccc(/C=C/C(=O)c2cccc(OCC(O)CNC(C)(C)C)c2)cc1` (centres unmarked) [Compound 30, 3′-[3-tert-Butylamino-2-hydroxy-propoxy]-4-methoxy-chalcone] showed a melting point of 83 to 84 °C. Besides, the inhibition in vivo at 100 mg/kg in series [1] amounted to 20%. For the same molecule, the “% Fall in blood glucose levels STZ-S 24 h” value in series [3] is listed as 11.3%. The inhibition in vivo at 100 mg/kg in series [2] (setting [6]) is 25%. Besides, the inhibition in vivo at 100 mg/kg in series [2] (setting [7]) turned out to be 27%. Also, the inhibition in vivo at 100 mg/kg in series [2] (setting [8]) turned out to be 30%.

Regarding `O=C1NC(=O)C(=Cc2ccc(OCCCCOc3cccc(C(=O)C=Cc4ccc5c(c4)OCO5)c3)cc2)S1` [Compound 45, 3,4-Methylenedioxy-3′-{4-[4-(thiazolidin-2,4-dione-5-ylidinemethyl)-phenoxy]-butoxy}-chalcone], the “% Fall in blood glucose levels SLM” value in series [1] was found to be 0.13%. The “% Fall in lipid levels (Triton model) PL” value in series [2] (plasma phospholipid after 18 h) turned out to be 21%. In series [2] (setting [4]), the “% Fall in lipid levels (Triton model) TC” value worked out at 23%. For the same molecule, the “% Fall in lipid levels (Triton model) TG” value in series [2] (setting [5]) worked out at 14%.

The molecule `CCCCNCC(O)COc1ccccc1C(=O)/C=C/c1ccc(OC)cc1` (centres unmarked) [Compound 31, 2′-[3-n-Butylamino-2-hydroxy-propoxy]-4-methoxy-chalcone] showed a melting point of 106 to 107 °C. In addition, in series [1], the inhibition in vivo at 100 mg/kg is 33.1%. Moreover, in series [3], the “% Fall in blood glucose levels STZ-S 5 h” value is “NIL” and the “% Fall in blood glucose levels STZ-S 24 h” value is given as “NIL”. In addition, the inhibition in vivo at 100 mg/kg in series [2] (setting [6]) was found to be 3%.

Molecule `CCCCNCC(O)COc1ccc(C(=O)/C=C/c2ccc(OC)cc2)cc1` (centres unmarked) [Compound 27, 4′-[3-n-Butylamino-2-hydroxy-propoxy]-4-methoxy-chalcone] came in with a melting point of 163 to 164 °C. Besides, the inhibition in vivo at 100 mg/kg in series [1] worked out at 38%. Also, in series [3], the “% Fall in blood glucose levels STZ-S 5 h” value is on record as “NIL” and the “% Fall in blood glucose levels STZ-S 24 h” value is reported as “NIL”. Moreover, the inhibition in vivo at 100 mg/kg in series [2] (setting [6]) was determined as 22%. Besides, the inhibition in vivo at 100 mg/kg in series [2] (setting [7]) amounted to 25%. The inhibition in vivo at 100 mg/kg in series [2] (setting [8]) is 20%.

`CNCC(O)COc1ccc(C(=O)/C=C/c2ccc(OC)cc2)cc1` (centres unmarked) [Compound 26, 4′-[2-Hydroxy-3-methylamino-propoxy]-4-methoxy-chalcone] registered a melting point of 114 to 115 °C. The inhibition in vivo at 100 mg/kg in series [2] (setting [6]) is 28%. The inhibition in vivo at 100 mg/kg in series [2] (setting [7]) amounted to 37%. Besides, the inhibition in vivo at 100 mg/kg in series [2] (setting [8]) amounted to 39%.

Take `COc1ccc(C=CC(=O)c2cccc(OCCCCOc3ccc(C=C4SC(=O)NC4=O)cc3)c2)cc1` [Compound 43, 4-Methoxy-3′-{4-[4-(thiazolidin-2,4-dione-5-ylidinemethyl)-phenoxy]-butoxy}-chalcone]: the “% Fall in blood glucose levels SLM” value in series [1] is given as “NIL”. The “% Fall in lipid levels (Triton model) PL” value in series [2] (plasma phospholipid after 18 h) was 14%. Besides, the “% Fall in lipid levels (Triton model) TC” value in series [2] (setting [4]) came to 04%. The “% Fall in lipid levels (Triton model) TG” value in series [2] (setting [5]) is recorded as 31%.

On to `COc1ccc(/C=C/C(=O)c2cccc(OCC(O)CN3CCN(c4ccccc4)CC3)c2)cc1` (centres unmarked) [Compound 28, 3′-[2-Hydroxy-3-(4-phenylpiperazin-1-yl)-propoxy]-4-methoxy-chalcone], for which the melting point fell in the range of 153 to 154 °C. In addition, the inhibition in vivo at 100 mg/kg in series [1] came out at 4.41%. Also, the inhibition in vivo at 100 mg/kg in series [2] (setting [6]) was 26%. Also, the inhibition in vivo at 100 mg/kg in series [2] (setting [7]) was determined as 40%. Moreover, the inhibition in vivo at 100 mg/kg in series [2] (setting [8]) amounted to 17%.

In turn, `COc1ccc(/C=C/C(=O)c2ccc(OCC(O)CNCCc3ccc(OC)c(OC)c3)cc2)cc1` (centres unmarked) [Compound 25, 4′-[3-{2-(3,4-Dimethoxyphenyl)-ethylamino}-2-hydroxy-propoxy]-4-methoxy-chalcone] showed a melting point of 120 to 121 °C. In addition, the “% Fall in blood glucose levels SLM” value in series [1] is given as “NIL”. Moreover, the inhibition in vivo at 100 mg/kg in series [2] (setting [6]) was determined as 10%. Moreover, in series [2] (setting [7]), the inhibition in vivo at 100 mg/kg turned out to be 4%. In addition, the inhibition in vivo at 100 mg/kg in series [2] (setting [8]) came to 33%.

With `COc1ccc(/C=C/C(=O)c2ccc(OCC(O)CNC(C)C)cc2)cc1` (centres unmarked) [Compound 23, 4′-[2-Hydroxy-3-iso-propylamino-propoxy]-4-methoxy-chalcone], the melting point lay in the range of 105 to 106 °C. Further, the inhibition in vivo at 100 mg/kg in series [1] came out at 1.41%. Also, the inhibition in vivo at 100 mg/kg in series [2] (setting [6]) is 12%. Besides, in series [2] (setting [7]), the inhibition in vivo at 100 mg/kg amounted to 17%. In addition, in series [2] (setting [8]), the inhibition in vivo at 100 mg/kg was 22%.

In the case of `COc1ccc(/C=C/C(=O)c2ccc(OCC(O)CNCC(C)C)cc2)cc1` (centres unmarked) [Compound 21, 4′-[3-iso-Butylamino-2-hydroxy-propoxy]-4-methoxy-chalcone], the melting point is 76 to 77 °C. Moreover, the inhibition in vivo at 100 mg/kg in series [1] was 5.67%. The inhibition in vivo at 100 mg/kg in series [2] (setting [6]) was 14%. For the same molecule, the inhibition in vivo at 100 mg/kg in series [2] (setting [7]) is 5%. Also, the inhibition in vivo at 100 mg/kg in series [2] (setting [8]) was found to be 12%.

On to `O=C(/C=C/c1ccc2c(c1)OCO2)c1ccc(OCC(O)CN2CCN(c3ccccc3)CC2)cc1` (centres unmarked) [Compound 33, 4′-[2-Hydroxy-3-(4-phenylpiperazin-1-yl)-propoxy]-3,4-methylenedioxy-chalcone], for which the melting point fell in the range of 153 to 154 °C. Further, the inhibition in vivo at 100 mg/kg in series [1] turned out to be 5.03%. Moreover, in series [2] (setting [6]), the inhibition in vivo at 100 mg/kg is 21%. Moreover, the inhibition in vivo at 100 mg/kg in series [2] (setting [7]) was 22%. Further, the inhibition in vivo at 100 mg/kg in series [2] (setting [8]) is 16%.
